# Experimental data: PubChem BioAssay AID588764 (Broad Institute, 2011)
# Results filed as inconclusive are left out. The source made the active and inactive calls. The rule behind the calls is not given here.
# Biological target: Histone acetyltransferase RTT109 (Candida albicans (strain SC5314 / ATCC MYA-2876)) (UniProt Q5AAJ8)
# Assay: Rtt109/Vps75 acetyltransferase inhibitor potency, dose response, biochemical, cherry-picked hits, plate reader (AID 588764)
# Conditions: Rtt109/Vps75 HAT activity
# Histone acetyltransferase RTT109 (Candida albicans (strain SC5314 / ATCC MYA-2876)), sequence (Q5AAJ8 whole entry, looked up): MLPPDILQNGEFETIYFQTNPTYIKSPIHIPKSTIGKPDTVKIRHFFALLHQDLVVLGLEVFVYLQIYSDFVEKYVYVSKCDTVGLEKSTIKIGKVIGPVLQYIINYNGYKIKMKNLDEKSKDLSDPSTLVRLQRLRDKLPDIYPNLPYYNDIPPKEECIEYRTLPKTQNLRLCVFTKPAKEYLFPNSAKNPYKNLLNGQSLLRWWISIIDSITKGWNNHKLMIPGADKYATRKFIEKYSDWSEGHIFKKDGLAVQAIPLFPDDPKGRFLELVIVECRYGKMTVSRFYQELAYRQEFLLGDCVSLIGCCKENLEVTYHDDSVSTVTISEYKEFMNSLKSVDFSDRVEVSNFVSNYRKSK
row,Compound,AC50
1,O=c1c2ccccc2[se]n1-c1ccccc1,1.55 µM
2,O=C(Nc1ccccc1Cl)/C(Cl)=C(\Cl)S(=O)c1ccccc1 (stereo not drawn),8.62 µM
3,N#Cc1c(Nc2ccccc2)s[nH]c1=O,5.84 µM
4,N#Cc1c(Nc2ccccc2Cl)s[nH]c1=O,4.21 µM
5,CN(C)C(=S)SSC(=S)N(C)C,3.4 µM
6,CCCCS(=O)(=O)/C=C\C=C/S(=O)(=O)CCCC,7.19 µM
7,CCOC(=O)N1CCN(Cc2c(O)ccc3ccccc23)CC1,18.8 µM
8,CCn1c(C)c(CS(=O)(=O)c2ccccc2)[nH]c1=O,11.3 µM
9,Oc1cc2c(cc1O)[C@H]1c3ccc(O)c(O)c3OC[C@@]1(O)C2,7.81 µM
10,Nc1nnc(SC2CC(=O)N(c3ccccc3)C2=O)s1 (stereo not drawn),13.6 µM
11,CCSS(=O)(=O)c1cccc2cccnc12,5.16 µM

# Same assay, conditions: Rtt109/Vps75 HAT activity, at 19.5 µM (top of the series)
row,Compound,"activity change, negative = inhibition"
1,CN(C)C(CNC(=O)c1ccc(C(=O)c2ccccc2)cc1)c1ccccc1 (stereo not drawn),inactive
2,CCCCNS(=O)(=O)c1ccc(NC(=O)Cc2ccccc2[N+](=O)[O-])cc1,inactive
3,CC(C)OC(=O)N(C)c1ccc(C(O)(C(F)(F)F)C(F)(F)F)cc1,inactive
4,Cc1cc(C(=O)Nc2ccncc2)c(C)o1,inactive
5,Cc1ccc(-n2c(O)c(C=NCc3ccccn3)c3ccccc3c2=O)cc1C,inactive
6,COc1ccccc1-n1cnnc1SCC(=O)NC1CCCC1,inactive
7,COc1cccc2c1Oc1ncccc1N(C(=O)CCC(=O)NCc1ccc(F)cc1)C2,inactive
8,COc1ccc(-[n+]2c(C)cc(/C=C3\Sc4ccccc4N3C)cc2C)cc1,inactive
9,COc1cccc(/C=C2/Sc3ccc(C(=O)NCCCN4CCCC4)cc3NC2=O)c1,inactive
10,CCN1/C(=C/c2ccc3cc(C)ccc3[n+]2CC)Sc2cc(C)ccc21,inactive
11,CC(C)CCNC(=O)C1CCN(S(=O)(=O)c2ccc3c(c2)CC(C)N3C(=O)C2CCC2)CC1 (stereo not drawn),inactive
12,CC(C)c1nnc(NC(=O)CCC(=O)NCc2cccs2)s1,inactive
13,COc1ccccc1C(=O)CSc1nccn1C,inactive
14,CCCCCCCCCCn1c2c(c(=N)c3c1CCC3)CCC2,inactive
15,COc1cc2nc(NCCCN3CCN(C)CC3)n3nc(-c4ccccc4)nc3c2cc1OC,inactive
16,CCOC(=O)C1=C(C)N=c2s/c(=C/c3ccc(OCC(=O)O)cc3)c(=O)n2C1c1cc(OC)c(OC)c(OC)c1 (stereo not drawn),inactive
17,CC(=O)NC(CC(=O)NC1CCCc2ccccc21)c1ccccc1 (stereo not drawn),inactive
18,CN1CCN(S(=O)(=O)c2cccc(C(=O)N(Cc3ccccc3)c3ccccc3)c2)CC1,inactive
19,CN(C(=O)CCc1nc(-c2ccccc2F)no1)c1ccccc1,inactive

row,Compound,"activity change, negative = inhibition"
1,CCOC(=O)C1CCN(S(=O)(=O)c2ccc3c(c2)CC(C)N3C(=O)C2CCC2)CC1 (stereo not drawn),inactive
2,CN(C)c1ccc(NC(=O)/C=C/c2ccccc2Cl)cc1,inactive
3,CCCCc1ccc(-n2c(Cc3cccs3)n[nH]c2=S)cc1,inactive
4,Cc1ccc2sc(NNC(=O)C3=COCCO3)nc2c1C,inactive
5,O=C(O)c1ccc(-c2ccc(/C=N/Nc3ccc([N+](=O)[O-])cc3)o2)cc1,inactive
6,COc1ccc(CN(C)C(=O)c2cc(S(=O)(=O)N3CCCCCC3)ccc2OC)cc1OC,inactive
7,COc1cccc(C(=O)NCc2nnc(SCC(=O)Nc3nccs3)n2-c2cccc(C)c2)c1,inactive
8,COc1ccc(CCNC(=O)CN2C(=O)NC3(CCCCC3C)C2=O)cc1 (stereo not drawn),inactive
9,COc1ccc(/C=N/NC(=O)COc2ccc(Cl)cc2Cl)cc1Cn1nc(C)cc1C,inactive
10,CC(C(=O)NC1CCS(=O)(=O)C1)N1C(=O)/C(=C/c2ccc(Cl)cc2)SC1=S (stereo not drawn),inactive
11,Clc1nc(NCc2cccnc2)nc(N2CCOCC2)n1,inactive
12,O=C1Cc2ccccc2Sc2c(OCCN3CCCCC3)cccc21,inactive
13,CCN(CC)CCOc1ccc2c(c1)C(=NNC(=O)c1ccccn1)c1cc(OCCN(CC)CC)ccc1-2,inactive
14,Cc1c(C(=O)N2CCC[C@H]2CO)oc2c(F)cccc12,inactive
15,Cc1ccc(C#N)c(SCc2nnc(-c3ccc(Cl)cc3)o2)n1,inactive
16,Cc1ccccc1N1C(S)=C(C#N)C(=O)NC12CCCCC2,inactive
17,COc1ccc(NC(=O)CSc2nnc(-c3ccccc3)n2N)cc1,inactive
18,C#CCOCCOCCOCCNc1nc(N2CCN(C(=O)[C@H](CCCN=C(N)N)n3cc(C(N)[C@@H](C)CC)nn3)CC2)nc(N2CCN(C(=O)[C@H](CCCCN)n3cc([C@@H](N)[C@H](C)CC)nn3)CC2)n1 (stereo partly drawn),inactive
19,COc1ccc(-n2nc3c(c2NC(=O)c2ccc(N4C(=O)CCC4=O)cc2)CSC3)cc1,inactive

row,Compound,"activity change, negative = inhibition"
1,COCc1ccc(CN2CCC(n3nccc3NC(=O)C(OC)c3ccccc3)CC2)o1 (stereo not drawn),inactive
2,COc1ccc(CC(NC(C)=O)C(=O)NC2CCN(c3nc(C)cc(C)c3C#N)CC2)cc1 (stereo not drawn),inactive
3,CCc1nnc(NC(=O)CSc2nnc(C3CCCCC3)n2-c2cccc(Cl)c2)s1,inactive
4,CC1Cc2cc(S(=O)(=O)N3CCC(C(=O)N(C)Cc4ccco4)CC3)ccc2N1C(=O)C1CCC1 (stereo not drawn),inactive
5,O=C(O)C(Cc1ccccc1)N1C(=O)/C(=C/c2ccccc2)SC1=S (stereo not drawn),inactive
6,CN(C)S(=O)(=O)Oc1ccccc1C(=O)Nc1ccccc1Cl,inactive
7,CCCC(CCC)C(=O)OC[N+](C)(C)CCOC(=O)C(O)(c1ccccc1)C1CCCC1 (stereo not drawn),inactive
8,CCOC(=O)c1c(C)oc2c1c(C=NCCO)c(O)c1ccccc12,inactive
9,CCn1c(SCC(=O)Nc2cc(OC)c(OC)c(OC)c2)nnc1-c1cccs1,inactive
10,N#C/C(=C\c1ccncc1)c1nc2c(s1)CCCC2,inactive
11,COc1ccc(C(=O)NNC(=O)c2ccncc2)cc1,inactive
12,O=C(OCc1ccc(Br)cc1)c1ccncc1,inactive
13,CCN(CC)CCCNc1nc2cc(OC)c(OC)cc2c2nc(-c3cccnc3)nn12,inactive
14,Cc1ccc(NC(=S)N(CCCN2CCCC2)Cc2cccn2Cc2ccc(Cl)cc2)cc1C,inactive
15,Fc1ccc(NC(=S)Nc2ccc(Br)cc2)cc1,inactive
16,O=C(NCc1ccc2c(c1)OCO2)c1ccc(CS(=O)Cc2cccc(Cl)c2)o1 (stereo not drawn),inactive
17,Cc1ccc(NC(=O)OCc2cc(-c3ccccc3)on2)cc1,inactive
18,O=C(Nc1ccc(Oc2cccnc2)cc1)C1CCN(Cc2cc(Cl)ccc2O)CC1,inactive
19,CC1Sc2ccccc2N(CC(=O)N(C(C)C)C(C)C)C1=O (stereo not drawn),inactive
